Like-named read-outs stand apart in the source and are kept apart here.
Assays:
MCF-7 [1] = conditions: MCF-7, 5-day assay
HeLa = format: cell-based; conditions: Homo sapiens, 3 to 5 days
A-549 lung cancer cells = assay: High-content selectivity study, cancer cells
MDA-MB-231 = format: cell-based; conditions: Homo sapiens; MDA-MB-231, 3 to 5 days
MCF-7 cells [2] = assay: Reversibility test (drug washout, MTS); format: cell-based; conditions: 1 nM, washout at intervals, read at 72 h
Procedure: (§1) One concentration was used in each experiment for all times examined. […] At the desired time intervals, the media containing the drug was removed, the wells were washed 5 times with new media and 200 μL of new media containing 1% DMSO was added.
(§2) All cells were treated at the same time meayamycin at 1 nM concentration. At the given time interval, the drug-containing media was removed and replaced with fresh media. Cell proliferation was measured at the last time interval (72 h).

HeLa cells [3] = assay: Reversibility test (drug washout, MTS); format: cell-based; conditions: preliminary result
Procedure: as §1, §2

A549 cells = assay: Reversibility test (drug washout, MTS); format: cell-based; conditions: 1 nM, washout at intervals, read at 72 h
Procedure: as §1, §2

HCT116 = format: cell-based; conditions: Homo sapiens, HCT-116; HCT116, 3 to 5 days
A549 = format: cell-based; conditions: Homo sapiens; A549, 3 to 5 days
MCF-7 [4] = assay: cells; conditions: Homo sapiens, MCF7
HeLa cells [5] = assay: High-content analysis of mitotic arrest and microtubule perturbation; format: cell-based; conditions: HeLa cells treated for 21 h
[6] = test system: DC3F transformed Chinese hamster cells; assay: Antiproliferative activity in parental cells; format: cell-based; conditions: for GI50: Cricetulus griseus, DC3F, read-out: average GI50 DC3F; for growth inhibition of parental DC3F cells: in words
MCF-7 cells [7] = assay: MCF-7 cell count with hemacytometer and trypan blue; conditions: for viability at 0.01 µM: Homo sapiens; for percent of cells present: 200 nM positive control
Procedure: MCF-7 cells were used in this experiment.
Cell proliferation was measured by manual counting using a hemacytometer by trypsinizing and staining with trypan blue.

H1299 = format: cell-based; conditions: Homo sapiens, NCI-H1299; H1299, 3 to 5 days
PC-3 = format: cell-based; conditions: Homo sapiens; PC-3, 3 to 5 days
[8] = test system: multidrug resistant subline VCRd5L; assay: Antiproliferative activity in multidrug resistant cells; format: cell-based, Chinese hamster; conditions: for GI50: Cricetulus griseus, read-out: average GI50 VCRd5L
[9] = test system: IMR-90 human lung fibroblasts; assay: High-content selectivity study, normal cells
DU145 = format: cell-based; conditions: Homo sapiens, DU-145; DU145, 3 to 5 days
[10] = test system: mRNA levels of p53, p21, c-myc, and E2F-1; conditions: MCF-7 cells at 20 nM; cited from earlier work
[11] = mouse model; cited from earlier work
MCF-7 cells [12] = conditions: read-out: LC50 (apparent apoptosis); cited from earlier work
[13] = MCF7, 24 h, read-out: Percent Viable Cells, 10 nM, 24 hours
[14] = MCF7, 48 h, read-out: Percent Viable Cells, 10 nM, 48 hours

In the case of `CC(/C=C/[C@H]1OC(C)(C)C[C@@]2(CO2)[C@@H]1O)=C\C[C@@H]1O[C@H](C)[C@H](NC(=O)/C=C\[C@H](C)OC(=O)N2CCOCC2)C[C@@H]1C` [meayamycin B, (2Z,4S)-4-[(morpholinylcarbonyl)oxy]-N-[(2R,3R,5S,6S)-tetrahydro-6-[(2E,4E)-5-[(3R,4R,5R)-4-hydroxy-7,7-dimethyl-1,6-dioxaspiro[2.5]oct-5-yl]-3-methyl-2,4-pentadien-1-yl]-2,5-dimethyl-2H-pyran-3-yl]-2-pentenamide], the “times more potent than meayamycin in cultured cells” value (MCF-7 [1]) is reported as 2 times.
For `CC(=O)O[C@@H](C)/C=C\C(=O)N[C@@H]1C[C@H](C)[C@H](C/C=C(C)/C=C/[C@H]2OC(C)(C)C[C@@]3(CO3)[C@@H]2O)O[C@@H]1C` [meayamycin], the GI50 (HeLa) was 0.24 nM, the cell loss (A-549 lung cancer cells; 10 nM, 24 hours, compared with normal cells) was “more pronounced cell loss” and the nuclear morphology (A-549 lung cancer cells; 24 h) was “did not cause nuclear fragmentation but instead enlarged nuclei”. The p53 induction (A-549 lung cancer cells; 24 h) was “p53 induction”, the caspase cleavage (A-549 lung cancer cells; 24 h, some experiments) was “low level of caspase cleavage” and the “growth inhibition of A549 cells” value (A-549 lung cancer cells; FIG. 4) was “inhibits the growth of A549 cells”. For the same compound, the GI50 (MDA-MB-231) was 0.024 nM, the “reversibility of growth inhibition” value (MCF-7 cells [2]) was “irreversibly inhibits the growth” and the “reversibility of growth inhibition” value (HeLa cells [3]) was “reversibly inhibits the growth”. The “reversibility of growth inhibition” value (A549 cells) was “irreversibly inhibits the growth”, the GI50 (HCT116) was 0.044 nM and the GI50 (A549) was 0.11 nM. For the same compound, the GI50 (MCF-7 [4]) was 0.01 nM, the mitotic arrest (HeLa cells [5]) was “neither FR 901464 nor meayamycin were mitotic arresters” and the GI50 [6] was 0.46 ± 0.09 nM. For the same compound, the “growth inhibition of parental DC3F cells” value [6] was “active in the subnanomolar range”, the “Percent Viable Cells” value (MCF-7 cells [7]; 10 nM, 48 hours, listed as Compound IX, 0.01 µM) was 26% and the viability at 0.01 µM (MCF-7 cells [7]; [13]) was 46%. For the same compound, the viability at 0.01 µM (MCF-7 cells [7]; [14]) was 27%, the GI50 (H1299) was 0.091 nM and the GI50 (PC-3) was 0.058 nM. For the same compound, the “activity in the multidrug resistant cells” value [8] was “retained picomolar activity”, the fold resistance [8] was 1.5 fold and the GI50 [8] was 0.71 ± 0.27 nM. The p53 induction ([9]; 24 h) was “magnitude of response was smaller”, the “growth inhibition of normal lung cells (IMR-90)” value ([9]; FIG. 5) was “only mildly” and the GI50 (DU145) was 0.47 nM.
In the case of `CC(=O)O[C@@H](C)/C=C\C(=O)N[C@@H]1C[C@H](C)[C@H](C/C=C(C)/C=C/[C@H]2O[C@](C)(O)C[C@@]3(CO3)[C@@H]2O)O[C@@H]1C` [FR901464], the “mRNA levels of p53, p21, c-myc, and E2F-1” value [10] is listed as “lowers the mRNA levels”, the “antitumor activity, active dose” value [11] is listed as 0.056 to 0.18 mg/kg and the mitotic arrest (HeLa cells [5]) is listed as “neither FR 901464 nor meayamycin were mitotic arresters”. For the same compound, the CC50 (MCF-7 cells [12]) was 0.5 nM, the GI50 [6] was 7.49 ± 1.26 nM and the “growth inhibition of parental DC3F cells” value [6] was “potently inhibited the growth”. The viability at 0.01 µM (MCF-7 cells [7]; [13]) was 81% and the viability at 0.01 µM (MCF-7 cells [7]; [14]) was 49%.
Compound `CC(=O)O[C@@H](C)/C=C\C(=O)N[C@@H]1CC[C@H](C/C=C(C)/C=C/[C@H]2OC(C)(C)C[C@@]3(CO3)[C@@H]2O)O[C@@H]1C` [12-desmethyl meayamycin] has a GI50 (MDA-MB-231) of 0.7 nM, a GI50 (HCT116) of 2.2 nM and a GI50 (A549) of 1 nM. It also gave a GI50 (MCF-7 [4]) of 0.3 nM, a GI50 (H1299) of 2.8 nM and a GI50 (PC-3) of 1.6 nM. The GI50 (DU145) was 3.5 nM.
With `CC(=O)O[C@H]1C(=O)[C@@]2(C)[C@H]([C@H](OC(=O)c3ccccc3)[C@]3(O)C[C@H](OC(=O)[C@H](O)[C@@H](NC(=O)c4ccccc4)c4ccccc4)C(C)=C1C3(C)C)[C@]1(OC(C)=O)CO[C@@H]1C[C@@H]2O` [paclitaxel] the mitotic arrest (HeLa cells [5]) was “caused mitotic arrest”, the GI50 ([6]; average ± SD (n)) was 45.4 ± 11.3 nM and the “percent of cells present” value (MCF-7 cells [7]; 24 hour) was 70%. For the same compound, the “percent of cells present” value (MCF-7 cells [7]; 48 hour) was 52%, the “fold resistant (VCRd-5L cells)” value [8] was 60 fold and the GI50 ([8]; average ± SD (n)) was 2680 ± 109 nM.
`CC(=O)O[C@@H](C)/C=C\C(=O)N[C@@H]1CO[C@H](C/C=C(C)/C=C/[C@H]2OC(C)(C)C[C@@]3(CO3)[C@@H]2O)O[C@@H]1C` [acetal meayamycin] showed a GI50 (MCF-7 [4]) of 2.5 nM.
With `CC[C@]1(O)C[C@H]2CN(CCc3c([nH]c4ccccc34)[C@@](C(=O)OC)(c3cc4c(cc3OC)N(C=O)[C@H]3[C@@](O)(C(=O)OC)[C@H](OC(C)=O)[C@]5(CC)C=CCN6CC[C@]43[C@@H]65)C2)C1` [vincristine] the mitotic arrest (HeLa cells [5]) was “caused mitotic arrest”, the GI50 ([6]; average ± SD (n)) was 18.8 ± 16.2 nM and the “fold resistant (VCRd-5L cells)” value [8] was greater than 250 fold. The GI50 ([8]; average ± SD (n)) was greater than 5000 nM.
With `CC(/C=C/[C@H]1OC(C)(C)C[C@@]2(CO2)[C@@H]1O)=C\C[C@@H]1O[C@H](C)[C@H](NC(=O)/C=C\[C@H](C)O)C[C@@H]1C` [4′-desacetyl meayamycin] the GI50 (HeLa) was 1 nM, the GI50 (MDA-MB-231) was 0.35 nM and the GI50 (A549) was 0.74 nM. It also gave a GI50 (MCF-7 [4]) of 0.48 nM and a GI50 (H1299) of 1 nM.
